# Assay results taken from patent US6894045B2, “Tetrahydropurinones and derivatives thereof as corticotropin releasing factor receptor ligands” (Bristol-Myers Squibb Pharma Company, priority 2001, dated 2005).
row,SMILES,melting point [°C]
1,"CCCC(CCC)n1c(CC)nc2c1C(=O)N(C)C(CC)N2c1ccc(Cl)cc1Cl (stereo not shown) [Example 6, 3-(2,4-dichlorophenyl)-2,8-diethyl-7-(4-heptyl)-1-methyl-1,2,3,7-tetrahydro-6H-purin-6-one]",116.5 to 117.5
2,"CCc1nc2c(n1C(CC)CC)C(=O)N(C)CN2c1ccc(Cl)cc1Cl [Example 1, 3-(2,4-dichlorophenyl)-8-ethyl-1-methyl-7-(3-pentyl)-1,2,3,7-tetrahydro-6H-purin-6-one]",132 to 133
3,"CCc1nc2c(n1Cc1ccc(-c3ccccc3)cc1)C(=O)N(C)CN2c1ccc(Cl)cc1Cl [Example 21, 7-([1,1′-biphenyl]-4-ylmethyl)-3-(2,4-dichlorophenyl)-8-ethyl-1-methyl-1,2,3,7-tetrahydro-6H-purin-6-one]",216 to 217
4,"CCc1nc2c(n1C(CC)CC)C(=O)N(C)C(C)N2c1ccc(Cl)cc1Cl (stereo not shown) [Example 3, 3-(2,4-dichlorophenyl)-1,2-dimethyl-8-ethyl-7-(3-pentyl)-1,2,3,7-tetrahydro-6H-purin-6-one]",135 to 136.5
5,"CCCC(CCC)n1c(CC)nc2c1C(=O)N(C)CN2c1ccc(Cl)cc1Cl [Example 2, 3-(2,4-dichlorophenyl)-8-ethyl-7-(4-heptyl)-1-methyl-1,2,3,7-tetrahydro-6H-purin-6-one]",117 to 118
6,"CCCC(CCC)n1c(CC)nc2c1C(=O)N(C)C(C)N2c1ccc(Cl)cc1Cl (stereo not shown) [Example 5, 3-(2,4-dichlorophenyl)-1,2-dimethyl-8-ethyl-7-(4-heptyl)-1,2,3,7-tetrahydro-6H-purin-6-one]",144 to 145.5
7,"CCCCC(CC)n1c(CC)nc2c1C(=O)N(C)CN2c1ccc(Cl)cc1Cl (stereo not shown) [Example 49, 3-(2,4-dichlorophenyl)-8-ethyl-7-(3-heptyl)-1-methyl-1,2,3,7-tetrahydro-6H-purin-6-one]",94 to 95
